Here are results for seven compounds from patent US20250221988A1 (Cullgen (Shanghai), Inc., priority 2022, published 2025).

pIC50: −log10 of the molar value. Like-named read-outs stand apart in the source and are kept apart here. Bounds are passed on as bounds.

For one assay, the system named is MOLM-13 cells. The assay is described as follows: Cell viability assay (CellTiter-Glo) in MOLM-13 cells. Format: cell-based. The conditions noted are these: for pIC50: 72 h, compound alone, read-out: MOLM-13 IC50. As for the experimental part:
(§1) Cell Culture: RS4;11, MV4;11, MOLM-13 and other cells were cultured at 37° C. with 5% CO2 in RPMI 1640 or DMEM Medium supplemented with 10% fetal bovine serum. Cells were authenticated using the short tandem repeat (STR) assays. Mycoplasma test results were negative.
Cell viability assays: Cells were seeded at a density of 5000 cells per well in 96-well assay plates and treated with test compounds following a 8-point or 12-point 3-fold serial dilution. Three days later, cell viability was determined using the CellTiter-Glo assay kit according to the manufacturer's instructions. The dose-response curves were determined and IC50 values were calculated using the GraphPad Prism software following a nonlinear regression (least squares fit) method. […]

A further assay deals with MV4;11 cells. The assay is described as follows: Cell viability assay (CellTiter-Glo) in MV4;11 cells. It is filed as cell-based. The conditions noted are these: read-out: MV4; for pIC50: compound alone, 11 IC50. As for the experimental part:
as §1
Cell viability assays: Cells were seeded at a density of 5000 cells per well in 96-well assay plates and treated with test compounds following a 8-point or 12-point 3-fold serial dilution. Three days later, cell viability was determined using the CellTiter-Glo assay kit according to the manufacturer's instructions. The dose-response curves were determined and IC50 values were calculated using the GraphPad Prism software following a nonlinear regression (least squares fit) method.
The IC50 values (nM) of each compound were determined in MV4;11 and MOLM-13 cells with or without gilteritinib (10 nM for MV4;11; and 20 nM for MOML-13) as described in the Materials and Methods subsection and calculated using the GraphPad Prism 5.0 software.
For orientation: Cellular ATP, detected with luciferase, serves as a proxy for viable cell number.

[1] abbreviates: Homo sapiens, MOLM-13 cells, three days.
[2] abbreviates: MOLM-13 cells, with gilteritinib, three days, read-out: MOLM-13 IC50 (nM) + 10 nM Gil.
Setting [3] is: Homo sapiens, MV4-11, 72 h, MV4;11 cells, three days.
[4] abbreviates: MV4;11 cells, with 10 nM gilteritinib, three days, 11 IC50 (nM) + 10 nM Gil.

`O=C1CCC(N2C(=O)c3ccc(NC[C@H]4C[C@H](n5cc(C6CCCC(O)C6)c(C6CC6)n5)C4)cc3C2=O)C(=O)N1` (stereo partly drawn) [GS-703, 5-(((Trans-3-(3-cyclopropyl-4-(3-hydroxycyclohexyl)-1H-pyrazol-1-yl)cyclobutyl)methyl)amino)-2-(2,6-dioxopiperidin-3-yl)isoindoline-1,3-dione]: the pIC50 in the assay with MOLM-13 cells (setting [1]) was 6.00 to 7.00; in the assay on MV4;11 cells (setting [3]), 7.00 to 8.00. The IC50 in the assay on MOLM-13 cells (setting [2]) and in the assay on MV4;11 cells (setting [4]) was 10 to 100 nM in each case.

With `Cn1ccc2nc(-c3cn([C@H]4C[C@H](CNc5ccc6c(c5)C(=O)N(C5CCC(=O)NC5=O)C6=O)C4)nc3C3CC3)ccc21` (stereo partly drawn) [GS-695, 5-(((Trans-3-(3-cyclopropyl-4-(1-methyl-1H-pyrrolo[3,2-b]pyridin-5-yl)-1H-pyrazol-1-yl)cyclobutyl)methyl)amino)-2-(2,6-dioxopiperidin-3-yl)isoindoline-1,3-dione], the pIC50 in the assay with MOLM-13 cells (setting [1]) and in the assay on MV4;11 cells (setting [3]) was 7.00 to 8.00 throughout. Moreover, the IC50 in the assay on MOLM-13 cells (setting [2]) and in the assay on MV4;11 cells (setting [4]) was below 10 nM each time.

Regarding `Cn1ncc2cncc(-c3cn([C@H]4C[C@H](CNc5ccc6c(c5)C(=O)N(C5CCC(=O)NC5=O)C6=O)C4)nc3C3CC3)c21` (stereo partly drawn) [GS-781, 5-(((Trans-3-(3-cyclopropyl-4-(1-methyl-1H-pyrazolo[4,3-c]pyridin-7-yl)-1H-pyrazol-1-yl)cyclobutyl)methyl)amino)-2-(2,6-dioxopiperidin-3-yl)isoindoline-1,3-dione], the pIC50 in the assay with MOLM-13 cells (setting [1]) was 6.00 to 7.00; with MV4;11 cells (setting [3]), 7.00 to 8.00. For the same compound, the IC50 in the assay with MOLM-13 cells (setting [2]) was 10 to 100 nM; in the assay on MV4;11 cells (setting [4]) it was below 10 nM.

For the compound `Cn1ccc2c(-c3cn([C@H]4C[C@H](CNc5ccc6c(c5)C(=O)N(C5CCC(=O)NC5=O)C6=O)C4)nc3C3CC3)ncc(F)c21` (stereo partly drawn) [GS-768, 5-(((Trans-3-(3-cyclopropyl-4-(7-fluoro-1-methyl-1H-pyrrolo[3,2-c]pyridin-4-yl)-1H-pyrazol-1-yl)cyclobutyl)methyl)amino)-2-(2,6-dioxopiperidin-3-yl)isoindoline-1,3-dione], the pIC50 in the assay on MOLM-13 cells (setting [1]) and in the assay with MV4;11 cells (setting [3]) was above 8.00 throughout. Moreover, the IC50 in the assay with MOLM-13 cells (setting [2]) and in the assay on MV4;11 cells (setting [4]) was below 10 nM in each case.

On to `CN(C)c1nc(-c2cn([C@H]3C[C@H](CNc4ccc5c(c4)C(=O)N(C4CCC(=O)NC4=O)C5=O)C3)nc2C2CC2)ccc1F` (stereo partly drawn) [GS-707, 5-(((Trans-3-(3-cyclopropyl-4-(6-(dimethylamino)-5-fluoropyridin-2-yl)-1H-pyrazol-1-yl)cyclobutyl)methyl)amino)-2-(2,6-dioxopiperidin-3-yl)isoindoline-1,3-dione], for which the IC50 with MOLM-13 cells (Homo sapiens, MOLM-13, 72 h, read-out: MOLM-13 IC50 (nM)) was 10 to 100 nM; with MOLM-13 cells (read-out: MOLM-13 IC50 (nM) + 10 nM Gil, MOLM-13 cells, with gilteritinib, three days) it was 10 to 100 nM; in the assay on MV4;11 cells (Homo sapiens, MV4-11, 72 h, 11 IC50 (nM)) it was 10 to 100 nM; in the assay on MV4;11 cells (11 IC50 (nM) + 10 nM Gil, MV4;11 cells, with 10 nM gilteritinib, three days), below 10 nM. Also, in the assay with MOLM-13 cells (MOLM-13 cells, with or without 20 nM gilteritinib, 3 days), the “sensitization of AML cells to GSPT1 degraders by FLT3 inhibition” value is given as “FLT3 inhibition sensitizes AML cells”.

With `O=C1CCC(N2C(=O)c3ccc(NC[C@H]4C[C@H](n5cc(-c6ncccc6C6CCNCC6)c(C6CC6)n5)C4)cc3C2=O)C(=O)N1` (stereo partly drawn) [GS-665, 5-(((Trans-3-(3-cyclopropyl-4-(3-(piperidin-4-yl)pyridin-2-yl)-1H-pyrazol-1-yl)cyclobutyl)methyl)amino)-2-(2,6-dioxopiperidin-3-yl)isoindoline-1,3-dione], the pIC50 in the assay with MOLM-13 cells (setting [1]) and in the assay on MV4;11 cells (setting [3]) was below 6.00 each time.

`O=C1CCC(N2C(=O)c3ccc(NC[C@H]4C[C@H](n5cc(-c6ncc(F)cc6N6CCNCC6)c(C6CC6)n5)C4)cc3C2=O)C(=O)N1` (stereo partly drawn) [GS-683, 5-(((Trans-3-(3-cyclopropyl-4-(5-fluoro-3-(piperazin-1-yl)pyridin-2-yl)-1H-pyrazol-1-yl)cyclobutyl)methyl)amino)-2-(2,6-dioxopiperidin-3-yl)isoindoline-1,3-dione]: the pIC50 in the assay on MOLM-13 cells (setting [1]) and with MV4;11 cells (setting [3]) was below 6.00 throughout.
